# In ChEMBL document CHEMBL1157838, “Cryptosphaerolide, a cytotoxic Mcl-1 inhibitor from a marine-derived ascomycete related to the genus Cryptosphaeria” (J Nat Prod, 2010):
# What was measured:
# [1] = molecular target: Induced myeloid leukemia cell differentiation protein Mcl-1 (Homo sapiens, UniProt Q07820); assay: Inhibition of Mcl1 protein by Mcl1/Bak fluorescence resonance assay
# HCT-116 = assay: Cytotoxicity against human HCT116 cells after 72 hrs by MTS/PMS assay; format: functional, cell-based; conditions: HCT-116, 72 h
# Sequence of Induced myeloid leukemia cell differentiation protein Mcl-1 (Q07820 whole entry): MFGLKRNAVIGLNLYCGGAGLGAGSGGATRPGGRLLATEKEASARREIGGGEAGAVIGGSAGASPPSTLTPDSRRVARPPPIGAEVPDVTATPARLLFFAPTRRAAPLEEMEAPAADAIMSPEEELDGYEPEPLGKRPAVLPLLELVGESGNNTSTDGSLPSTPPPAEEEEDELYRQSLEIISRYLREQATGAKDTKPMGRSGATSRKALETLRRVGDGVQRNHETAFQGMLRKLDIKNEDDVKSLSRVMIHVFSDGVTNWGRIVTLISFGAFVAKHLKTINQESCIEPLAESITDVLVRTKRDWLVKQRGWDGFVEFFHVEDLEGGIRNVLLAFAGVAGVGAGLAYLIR
SMILES,IC50 [1] [µM],IC50 (HCT-116) [µM]
C=C1CO[C@@]2(OC)[C@H]3O[C@]34[C@H](OC(=O)C(O)(CO)CC(C)CC(C)CC)CC[C@H](C)[C@@]4(C)C[C@@H]12 (stereo partly drawn),12.5,
C=C1CO[C@@]2(O)[C@H]3O[C@]34[C@H](OC(=O)C(O)(CO)CC(C)CC(C)CC)CC[C@H](C)[C@@]4(C)C[C@@H]12 (stereo partly drawn) [CRYPTOSPHAEROLIDE],11.4,4.5
